PMC11009625, “Antibiotic class with potent in vivo activity targeting lipopolysaccharide synthesis in Gram-negative bacteria” (Proceedings of the National Academy of Sciences of the …, 2024)
In brackets after ≈: the same amount, converted by molar mass. Where two headings read alike, the source gives them in different places.

How the values were obtained:
[1] = tested on: PaLpxH; assay: PaLpxH enzyme inhibition compared to EcLpxH; assay type: biochemical, P. aeruginosa; settings: PaLpxH vs EcLpxH
[2] = tested on: P. mirabilis ATCC 7002 and tolC::Tn5-kan2 EN1490; assay: MIC, P. mirabilis laboratory strains; assay type: cell-based; settings: Proteus mirabilis
Protocol: (§1) Minimum inhibitory concentration (MIC) values were determined according to the Clinical Laboratory Standards Institute guidelines. Frequency of resistance was determined by plating ~5 × 10^8 bacterial cells on agar-solidified media plates containing test compound at concentrations corresponding to four times the measured solid-media MIC of the strains. Colonies were counted after 24 h, restreaked onto media containing the same concentration of compound, and the MIC remeasured against the assayed compound. Genomic DNA from isolated clones was sequenced by paired-end sequencing on an Illumina MiSeq device. Complete experimental details available in SI Appendix. […]
(§2) Minimum inhibitory concentration (MIC) determination. Broth microdilution and agar dilution MIC assays were conducted according to CLSI guidelines (M07-2012). Appropriate inoculation suspension density was assessed using a Sensititre Nephelometer with a Sensititre 0.5 […]
(§3) McFarland Standard. […]
Strain construction. The efflux-defective P. mirabilis strain EN1490 was constructed using EZ-Tn5 <KAN-2> Transposome mutagenesis with TypeOne Restriction Inhibitor. Approximately 3000 independent clones were screened for increased susceptibility to chloramphenicol (8 mg/L), yielding 2 independent clones with insertions in the gene tolC. […]

[3] = tested on: clinical MDR K. pneumoniae isolates; assay: MIC, clinical multi-drug resistant K. pneumoniae isolates; assay type: cell-based; settings: Klebsiella pneumoniae
Protocol: as §1, §2, §3
(§4) To determine the […]
genotype of MDR strains from the ENABLE strain collection, de novo assembled contigs were […]

[4] = tested on: clinical K. pneumoniae isolates (n=104); assay: MIC distribution and MIC90, clinical K. pneumoniae isolates; assay type: cell-based; settings: Klebsiella pneumoniae; n=104, isolates from Spain, Poland, Denmark and Wales
Protocol: as §1, §2, §3, §4
genotype of MDR strains from the ENABLE strain collection, de novo assembled contigs were analyzed using ResFinder (12–14) […]
MIC distribution versus E. coli (n=111)
Clinical Isolates from Spain, Poland, Denmark and Wales
Figure S4. MIC distribution and MIC90 versus clinical E. coli isolates
MIC distribution versus K. pneumoniae (n=104)
Figure S5. MIC distribution and MIC90 versus clinical K. pneumoniae isolates […]

[5] = tested on: A. baumanii BM4454 and efflux-defective BM4652; assay: MIC, A. baumannii laboratory strains; assay type: cell-based; settings: Acinetobacter baumannii
Protocol: as §1
(§5) Minimum inhibitory concentration (MIC) determination. Broth microdilution and agar dilution
(§6) MIC assays were conducted according to CLSI guidelines (M07-2012). Appropriate inoculation
(§7) suspension density was assessed using a Sensititre Nephelometer with a Sensititre 0.5
McFarland Standard. Serum MICs were conducted in 50% heat-inactivated pooled human

[6] = tested on: P. aeruginosa PAO1 and efflux-defective PAO750; assay: MIC, P. aeruginosa laboratory strains; assay type: cell-based; settings: Pseudomonas aeruginosa
Protocol: as §1, §5, §6, §7, §3

[7] = ATCC7002, read-out: MIC P. mirabilis ATCC 7002
[8] = ATCC7002, read-out: MIC P. mirabilis EN1490
[9] = read-out: MIC K. pneumoniae EN0140
[10] = read-out: MIC K. pneumoniae EN0142
[11] = read-out: MIC K. pneumoniae EN0143
[12] = read-out: MIC K. pneumoniae EN0144
[13] = read-out: MIC K. pneumoniae EN0145
[14] = read-out: MIC K. pneumoniae EN0233
[15] = read-out: MIC K. pneumoniae EN0245
[16] = read-out: MIC K. pneumoniae EN0504
[17] = read-out: MIC A. baumanii BM4454
[18] = read-out: MIC A. baumanii BM4652
[19] = PAO1, read-out: MIC P. aeruginosa PAO1
[20] = PAO1, read-out: MIC P. aeruginosa PAO750

SMILES | Factor of decrease in inhibitory effect on PaLpxH compared to EcLpxH [1] | MIC [2, 7] [µg/mL] | MIC [2, 8] [µg/mL] | MIC [3, 9] [µg/mL] | MIC [3, 10] [µg/mL] | MIC [3, 11] [µg/mL] | MIC [3, 12] [µg/mL] | MIC [3, 13] [µg/mL] | MIC [3, 14] [µg/mL] | MIC [3, 15] [µg/mL] | MIC [3, 16] [µg/mL] | MIC90 [4] [µg/mL] | MIC [5, 17] [µg/mL] | MIC [5, 18] [µg/mL] | MIC [6, 19] [µg/mL] | MIC [6, 20] [µg/mL]
Cc1cc(C#N)nc(N2CCN(S(=O)(=O)c3ccc(NC(=O)c4cc(CN5CC(CN)C5)ccc4N(C)S(C)(=O)=O)cc3)CC2)n1 [EBL-3647] | > 10 | > 64 | 16 (≈ 24 µM) | 1 (≈ 1.5 µM) | 2 (≈ 2.99 µM) | 2 (≈ 2.99 µM) | 2 (≈ 2.99 µM) | 4 (≈ 5.99 µM) | 4 (≈ 5.99 µM) | 4 (≈ 5.99 µM) | 4 (≈ 5.99 µM) | 8 (≈ 12 µM) | > 64 | 64 (≈ 95.8 µM) | > 64 | 64 (≈ 95.8 µM)
Cc1cc(C#N)nc(N2CCN(S(=O)(=O)c3ccc(NC(=O)c4cc(CNCCCN)ccc4N(C)S(C)(=O)=O)cc3)CC2)n1.Cl.Cl [EBL-3599] | > 10 | > 64 | 4 | 1 | 2 | 2 | 2 | 4 | 4 | 8 | 4 | 8 | > 64 | 32 | > 64 | 64
